Key:
HCT116 MTAP null cells = assay: HCT116 MTAP null cell line proliferation / cell viability (CellTiter-Glo, 6 days); format: cell-based; conditions: 144 h; HCT116 MTAP null cells, 6 days treatment, CellTiter-Glo cell viability; read-out: HCT-116 MTAP null IC50
Procedure, shortened: (§1)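 CellTiter-Glo luminescence read after 6 days of compound exposure in parental and MTAP-null HCT116 cells grown in RPMI 1640/10% FBS. Dilution series: 1:3 steps, 8–9 points, top 1 or 10 μM; or 1:2 steps, 22 points, top 10 or 50 μM. IC50 = curve transit through 50% of control.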

HCT116 WT cells = assay: HCT116 WT (parent) cell line proliferation / cell viability (CellTiter-Glo, 6 days); format: cell-based; conditions: Homo sapiens, HCT-116, 144 h, 6 days treatment
Procedure, shortened: as §1

Q: What does the source list for `CN(C(=O)c1ccc2nc(N)c(I)cc2c1)[C@@H]1COCc2nc(C(F)(F)F)ccc21` [Example 315, 2-amino-3-iodo-N-methyl-N-((5S)-2-(trifluoromethyl)-5,8-dihydro-6H-pyrano[3,4-b]pyridin-5-yl)-6-quinoline-carboxamide]?
A: IC50 (HCT116 MTAP null cells): 508 nM; IC50 (HCT116 WT cells): 13400 nM

Q: For `COc1ccc2c(c1)COC[C@@H]2N(C)C(=O)c1cc2c(cn1)nc(N)c1cnn(C)c12` (single isomer, unassigned) [Example 421], which IC50 (HCT116 MTAP null cells) is on record?
A: 792 nM

Q: What about the IC50 (HCT116 WT cells) of the same molecule?
A: 35200 nM

Q: For `COc1ccc2c(n1)OC[C@@H]2N(C)C(=O)c1ccc2nc(N)c3c(c2c1)COC3` (single isomer, unassigned) [Example 525], which IC50 (HCT116 MTAP null cells) is on record?
A: 4160 nM

Q: And the IC50 (HCT116 WT cells)?
A: 50000 nM

Q: What does the source list for `CN(C(=O)c1cc2c3c(c(N)nc2cn1)COC3)[C@H]1COc2cc(C(F)(F)F)ccc21` (single isomer, unassigned) [Example 523]?
A: IC50 (HCT116 MTAP null cells): 2720 nM; IC50 (HCT116 WT cells): 10000 nM

Q: With `Cc1ccc2c(n1)COC[C@H]2N(C)C(=O)c1ccc2nc(N)c3cnn(C)c3c2c1` [Example 679, (S)-4-amino-N,1-dimethyl-N-(2-methyl-5,8-dihydro-6H-pyrano[3,4-b]pyridin-5-yl)-1H-pyrazolo[4,3-c]quinoline-8-carboxamide] as the molecule, how does the IC50 (HCT116 MTAP null cells) read?
A: 26 nM

Q: And the IC50 (HCT116 WT cells)?
A: 2270 nM

Q: Which results are given for `CN(C(=O)c1ccc2nc(N)c3c(c2c1)COC3)C1CCc2nc(C(F)(F)F)ccc21` (racemic) [Example 444, 4-amino-N-methyl-N-((5R)-2-(trifluoromethyl)-6,7-dihydro-5H-cyclopenta[b]pyridin-5-yl)-1,3-dihydrofuro[3,4-c]quinoline-8-carboxamide and 4-amino-N-methyl-N-((5S)-2-(trifluoromethyl)-6,7-dihydro-5H-cyclopenta[b]pyridin-5-yl)-1,3-dihydrofuro[3,4-c]quinoline-8-carboxamide]?
A: IC50 (HCT116 MTAP null cells): 348 nM; IC50 (HCT116 WT cells): 12000 nM

Q: What does the source list for `CC(C)N(C(=O)c1cc2c3c(c(N)nc2cc1F)[C@@H](C)OC3)[C@@H]1COc2cc(C(F)(F)F)ccc21` [Example 468, (3R)-4-amino-7-fluoro-3-methyl-N-(2-propanyl)-N-((3S)-6-(trifluoromethyl)-2,3-dihydro-1-benzofuran-3-yl)-1,3-dihydrofuro[3,4-c]quinoline-8-carboxamide]?
A: IC50 (HCT116 MTAP null cells): 114 nM; IC50 (HCT116 WT cells): 2690 nM

Q: With `CC(C)CN(C(=O)c1ccc2nc(N)c3cnn(C)c3c2c1)[C@@H]1COCc2nc(C(F)(F)F)ccc21` [Example 504, 4-amino-1-methyl-N-(2-methylpropyl)-N-((5S)-2-(trifluoromethyl)-5,8-dihydro-6H-pyrano[3,4-b]pyridin-5-yl)-1H-pyrazolo[4,3-c]quinoline-8-carboxamide] as the molecule, how does the IC50 (HCT116 MTAP null cells) read?
A: 4 nM

Q: What about the IC50 (HCT116 WT cells) of the same molecule?
A: 144 nM

Q: Which IC50 (HCT116 MTAP null cells) does the source give for `CN(C(=O)c1cc2c(cc1F)nc(N)c1cnn(C)c12)[C@@H]1CCc2nc(C(F)(F)F)ccc21` (single isomer, unassigned) [Example 375] here?
A: 9 nM

Q: And the IC50 (HCT116 WT cells)?
A: 568 nM

Q: What does the source list for `COc1ccc2c(c1)COC[C@H]2N(C)C(=O)c1cc2c(cn1)nc(N)c1cnn(C)c12` (single isomer, unassigned) [Example 420]?
A: IC50 (HCT116 MTAP null cells): 15 nM; IC50 (HCT116 WT cells): 439 nM

Q: With `Cc1cc2nc(N)c3cnn(C)c3c2cc1C(=O)N(C)[C@@H]1COc2cc(C(F)(F)F)ccc21` [Example 250, 4-amino-N,1,7-trimethyl-N-((3S)-6-(trifluoromethyl)-2,3-dihydro-1-benzofuran-3-yl)-1H-pyrazolo[4,3-c]quinoline-8-carboxamide] as the molecule, how does the IC50 (HCT116 MTAP null cells) read?
A: 2 nM

Q: And the IC50 (HCT116 WT cells)?
A: 46 nM

Q: With `CN(C(=O)c1cc2c3c(c(N)nc2cc1Cl)COC3)[C@@H]1COCc2cc(C#N)ccc21` [Example 496, 4-amino-7-chloro-N-((4S)-7-cyano-3,4-dihydro-1H-2-benzopyran-4-yl)-N-methyl-1,3-dihydrofuro[3,4-c]quinoline-8-carboxamide] as the molecule, how does the IC50 (HCT116 MTAP null cells) read?
A: 5 nM

Q: And the IC50 (HCT116 WT cells)?
A: 205 nM

Q: Which results are given for `CN(C(=O)c1ccc2nc(N)c3c(c2c1)COC3)C1COc2nc(C(F)(F)F)ccc21` (single isomer, unassigned) [Example 529]?
A: IC50 (HCT116 MTAP null cells): 89 nM; IC50 (HCT116 WT cells): 5590 nM

Q: With `Cc1cc2nc(N)c3c(c2cc1C(=O)N(C)[C@@H]1COCc2nc(C(F)(F)F)ccc21)COC3` [Example 277, 4-amino-N,7-dimethyl-N-((5S)-2-(trifluoromethyl)-5,8-dihydro-6H-pyrano[3,4-b]pyridin-5-yl)-1,3-dihydrofuro[3,4-c]quin-oline-8-carboxamide] as the molecule, how does the IC50 (HCT116 MTAP null cells) read?
A: 5 nM

Q: And the IC50 (HCT116 WT cells)?
A: 202 nM

Q: What does the source list for `CNC(=O)c1ccc(-c2ccc3c(c2)OC[C@H]3N(C)C(=O)c2ccc3nc(N)c4cnn(C)c4c3c2)cn1` [Example 646, 4-amino-N,1-dimethyl-N-((3S)-6-(6-(methylcarbamoyl)-3-pyridinyl)-2,3-dihydro-1-benzofuran-3-yl)-1H-pyrazolo[4,3-c]quinoline-8-carboxamide]?
A: IC50 (HCT116 MTAP null cells): 3 nM; IC50 (HCT116 WT cells): 329 nM

Q: How did the IC50 (HCT116 MTAP null cells) turn out when `CCN(C(=O)c1ccc2nc(N)c3c(c2c1)COC3)[C@H]1COc2cc(C(F)(F)F)ccc21` (single isomer, unassigned) [Example 534] was run?
A: 1730 nM

Q: What about the IC50 (HCT116 WT cells) of the same molecule?
A: 23900 nM

Q: Which results are given for `CN(C(=O)c1ccc2nc(N)c3c(cnn3C)c2c1)[C@@H]1COc2cc(S(F)(F)(F)(F)F)ccc21` [Example 255, 4-amino-N,3-dimethyl-N-((3S)-6-(pentafluoro-lambda~6~- sulfanyl)-2,3-dihydro-1-benzo-furan-3-yl)-3H-pyrazolo[3,4-c]quinoline-8-carboxamide]?
A: IC50 (HCT116 MTAP null cells): 47 nM; IC50 (HCT116 WT cells): 2400 nM

Q: Which results are given for `CN(C(=O)c1ccc2nc(N)c3c(c2c1)COC3)[C@@H]1CCc2cc(OC(F)(F)F)ccc21` (single isomer, unassigned) [Example 531]?
A: IC50 (HCT116 MTAP null cells): 113 nM; IC50 (HCT116 WT cells): 4860 nM

Q: `CN(C(=O)c1ccc2nc(N)c3c(cnn3C)c2c1)[C@H]1COc2cc(C(F)(F)F)ccc21` (single isomer, unassigned) [Example 576] was tested. Which IC50 (HCT116 MTAP null cells) did it give?
A: 4920 nM

Q: What about the IC50 (HCT116 WT cells) of the same molecule?
A: 13200 nM

Q: What does the source list for `CN(C(=O)c1cc2c(cc1F)nc(N)c1cnn(C)c12)[C@H]1COc2cc(S(F)(F)(F)(F)F)ccc21` (single isomer, unassigned) [Example 383]?
A: IC50 (HCT116 MTAP null cells): 380 nM; IC50 (HCT116 WT cells): 5660 nM

Q: For `CN(C(=O)c1cc2c(cc1F)nc(N)c1cnn(C)c12)[C@H]1COc2cc(C#N)ccc21` (single isomer, unassigned) [Example 374], which IC50 (HCT116 MTAP null cells) is on record?
A: 272 nM

Q: What about the IC50 (HCT116 WT cells) of the same molecule?
A: 22400 nM

Q: `CCOc1ccc2c(n1)COC[C@H]2N(C)C(=O)c1ccc2nc(N)c3cnn(C)c3c2c1` (single isomer, unassigned) [Example 410] was tested. Which IC50 (HCT116 MTAP null cells) did it give?
A: 21 nM

Q: And the IC50 (HCT116 WT cells)?
A: 1470 nM

Q: How did the IC50 (HCT116 MTAP null cells) turn out when `CN(C(=O)c1ccc2nc(N)c3c(c2c1)COC3)[C@@H]1COCc2cc(Br)ccc21` (single isomer, unassigned) [Example 608] was run?
A: 26 nM

Q: What about the IC50 (HCT116 WT cells) of the same molecule?
A: 1040 nM

Q: For `C[C@H]1OCc2c1c(N)nc1cc(F)c(C(=O)N(C3CCC3)[C@@H]3COc4cc(C(F)(F)F)ccc43)cc21` [Example 470, (3R)-4-amino-N-cyclobutyl-7-fluoro-3-methyl-N-((3S)-6-(trifluoromethyl)-2,3-dihydro-1-benzofuran-3-yl)-1,3-dihydrofuro[3,4-c]quinoline-8-carboxamide], which IC50 (HCT116 MTAP null cells) is on record?
A: 27 nM

Q: And the IC50 (HCT116 WT cells)?
A: 256 nM

Q: Which results are given for `CN(C(=O)c1ccc2nc(N)c3c(c2c1)COC3)[C@@H]1CCc2nc(C(F)(F)F)ccc21` (single isomer, unassigned) [Example 527]?
A: IC50 (HCT116 MTAP null cells): 143 nM; IC50 (HCT116 WT cells): 7520 nM

Q: For `CN(C(=O)c1cc2c(cc1C(F)(F)F)nc(N)c1cnn(C)c12)[C@@H]1COCc2cc(C(F)(F)F)ccc21` [Example 302, 4-amino-N,1-dimethyl-7-(trifluoromethyl)-N-((4S)-7-(trifluoromethyl)-3,4-dihydro-1H-2-benzopyran-4-yl)-1H-pyrazolo[4,3-c]quinoline-8-carboxamide], which IC50 (HCT116 MTAP null cells) is on record?
A: 6 nM

Q: What about the IC50 (HCT116 WT cells) of the same molecule?
A: 161 nM

Q: What does the source list for `CCN(C(=O)c1cc2c(cc1F)nc(N)c1c2cnn1C)[C@@H]1COCc2nc(C(F)(F)F)ccc21` [Example 305, 4-amino-N-ethyl-7-fluoro-3-methyl-N-((5S)-2-(trifluoro-methyl)-5,8-dihydro-6H-pyrano[3,4-b]pyridin-5-yl)-3H-pyrazolo[3,4-c]quinoline-8-carboxamide]?
A: IC50 (HCT116 MTAP null cells): 20 nM; IC50 (HCT116 WT cells): 429 nM

Q: `N#CCN(C(=O)c1cc2c3c(c(N)nc2cn1)COC3)C1COc2cc(C(F)(F)F)ccc21` (racemic) [Example 208, 4-amino-N-(cyanomethyl)-N-((3R)-6-(trifluoromethyl)-2,3-dihydro-1-benzofuran-3-yl)-1,3-dihydrofuro[3,4-c][1,7]-naphthyridine-8-carboxamide and 4-amino-N-(cyanomethyl)-N-((3S)-6-(trifluoromethyl)-2,3-dihydro-1-benzofuran-3-yl)-1,3-dihydrofuro[3,4-c][1,7]-naphthyridine-8-carboxamide] was tested. Which IC50 (HCT116 MTAP null cells) did it give?
A: 553 nM

Q: What about the IC50 (HCT116 WT cells) of the same molecule?
A: 16600 nM

Q: What does the source list for `Cc1nc2nc(N)c3cnn(C)c3c2cc1C(=O)N(C)[C@@H]1COc2cc(Cl)c(Cl)cc21` [Example 252, 4-amino-N-((3S)-5,6-dichloro-2,3-dihydro-1-benzofuran-3-yl)-N,1,7-trimethyl-1H-pyrazolo[4,3-c][1,8]naphthyr-idine-8-carboxamide]?
A: IC50 (HCT116 MTAP null cells): 19 nM; IC50 (HCT116 WT cells): 234 nM

Q: What does the source list for `CN(C(=O)c1cc2c3c(c(N)nc2cc1Cl)COC3)[C@@H]1COc2cc(C(F)(F)F)cc(F)c21` (single isomer, unassigned) [Example 566]?
A: IC50 (HCT116 MTAP null cells): 13 nM; IC50 (HCT116 WT cells): 447 nM

Q: What does the source list for `CC(C)CN(C(=O)c1cc2c(cc1F)nc(N)c1c2cnn1C)[C@H]1COCc2nc(C(F)(F)F)ccc21` [Example 518, 4-amino-7-fluoro-3-methyl-N-(2-methylpropyl)-N-((5R)-2-(trifluoromethyl)-5,8-dihydro-6H-pyrano[3,4-b]pyridin-5-yl)-3H-pyrazolo[3,4-c]quinoline-8-carboxamide]?
A: IC50 (HCT116 MTAP null cells): 965 nM; IC50 (HCT116 WT cells): 9330 nM

Q: For `CN(C(=O)c1ccc2nc(N)c3cnn(C)c3c2c1)[C@@H]1CCc2cc(Br)ccc21` (single isomer, unassigned) [Example 368], which IC50 (HCT116 MTAP null cells) is on record?
A: 37 nM

Q: And the IC50 (HCT116 WT cells)?
A: 2530 nM

Source: patent publication US20240124442A1, “TRICYCLIC-AMIDO-BICYCLIC PRMT5 INHIBITORS” (AMGEN INC., priority 2021, published 2024)
